Assay results from patent US5789422A, “Substituted arylalkylamines as neurokinin antagonists” (Schering Corporation, priority 1996, dated 1998).

Assays:
[1] = biological target: T1, human neurokinin 1 (NK1) receptor (Homo sapiens, UniProt P25103); assay: Neurokinin receptor binding assay, human NK1; settings: CHO cell membranes, [3H]-Substance P, read-out: % Inhibition of NK1 at a dose of 1 μM
T1 construct: expressed in transfected cells; host or cells: CHO (Chinese hamster ovary) cells, membranes
Experimental: (§1) Chinese Hamster ovary (CHO) cells transfected with the coding regions for the human neurokinin 1 (NK1) of the human neurokinin 2 (NK2) receptors are grown in Dulbecco's minimal essential medium supplemented with 10% fetal calf serum, 0.1 mM non-essential amino acids, 2 mM glutamine, 100 units/ml of penicillin and streptomycin, and 0.8 mg of G418/ml at 37° C. in a humidified atmosphere containing 5% CO2.
(§2) Cells are detached from T-175 flasks with a sterile solution containing 5 mM EDTA in phosphate buffered saline. Cells are harvested by centrifugation and washed in RPMI media at […] for 5 minutes. The pellet is resuspended in Tris-HCl (pH7.4) containing 1 uM phsphoramidon and 4 ug/ml of chymostatin at a cell density of 30×10^6 cells/ml. The suspension is then homogenized in a Brinkman Polytron (setting 5) for 30-45 seconds. The homogenate is centrifuged at 800 x g for 5 min at 4° C. to collect unbroken cells and nuclei. The supernatant is centrifuged in a Sorvall RC5C at 19,000 rpm ([…]) for 30 min at 4° C. The pellet is resuspended, an aliquot is removed for a protein determination (BCA) and washed again. The resulting pellet is stored at -80° C.
(§3) To assay receptor binding, 50 μl of [^3 H]-Substance P (9-Sar, 11-Met) (specific activity 41 Ci/mmol) (Dupont-NEN) (0.8 nM for the NK-1 assay) or [^3 H]-Neurokinin A (specific activity 114 Ci/ mmole) (Zenca) (1.0 nM for the NK-2 assay) is added to tubes containing buffer (50 mM Tris-HCl (pH 7.4) with 1 mM MnCl2 and 0.2% Bovine Serum Albumin) and either DMSO or test compound. Binding is initiated by the addition of 100 μl of membrane (10-20 μg) containing the human NK-1 or NK-2 receptor in a final volume of 200 μl. After 40 minutes at room temperature, the reaction is stopped by rapid filtration onto Whatman GF/C filters which have been presoaked in 0.3% polyethylenimine. Filters are washed 2 times with 3 ml of 50 mM Tris-HCl (pH7.4). Filters are added to 6 mls of Ready-Safe liquid scintillation cocktail and quantified by liquid scintillation spectrometry in a LKB 1219 RackBeta counter. Non-specific binding is determined by the addition of either 1 μM of CP-99994 (NK-1) or 1 μM SR-48968 (NK-2) (both synthesized by the chemistry department of Schering-Plough Research Institute). IC50 values are determined from competition binding curves and Ki values are determined according to Cheng and Prusoff using the experimentally determined value of 0.8 nM for the NK-1 receptor and 2.4 nM for the NK-2 receptor.
(§4) % Inhibition is the difference between the percent of maximum specific binding (MSB) and 100%. The percent of MSB is defined by the following equation, wherein "dpm" is disintegrations per minute: [formula]

[2] = biological target: T2, human neurokinin 2 (NK2) receptor (Homo sapiens, UniProt P21452); assay: Neurokinin receptor binding assay, human NK2; settings: CHO cell membranes, [3H]-Neurokinin A, read-out: % Inhibition of NK2 at a dose of 1 μM
T2 construct: expressed in transfected cells; host or cells: CHO (Chinese hamster ovary) cells, membranes
T2 sequence (P21452 1-398): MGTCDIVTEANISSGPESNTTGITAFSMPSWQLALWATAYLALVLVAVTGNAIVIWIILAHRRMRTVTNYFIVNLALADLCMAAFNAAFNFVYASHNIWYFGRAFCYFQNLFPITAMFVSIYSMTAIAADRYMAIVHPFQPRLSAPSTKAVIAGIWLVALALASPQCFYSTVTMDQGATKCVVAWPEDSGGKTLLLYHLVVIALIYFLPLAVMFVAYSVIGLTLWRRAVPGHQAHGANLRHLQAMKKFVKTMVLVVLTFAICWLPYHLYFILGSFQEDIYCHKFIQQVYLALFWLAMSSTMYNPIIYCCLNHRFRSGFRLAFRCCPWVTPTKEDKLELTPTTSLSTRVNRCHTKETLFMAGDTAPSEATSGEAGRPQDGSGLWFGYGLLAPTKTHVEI
Experimental: as §1, §2, §3, §4

T1 sequence (P25103 whole entry): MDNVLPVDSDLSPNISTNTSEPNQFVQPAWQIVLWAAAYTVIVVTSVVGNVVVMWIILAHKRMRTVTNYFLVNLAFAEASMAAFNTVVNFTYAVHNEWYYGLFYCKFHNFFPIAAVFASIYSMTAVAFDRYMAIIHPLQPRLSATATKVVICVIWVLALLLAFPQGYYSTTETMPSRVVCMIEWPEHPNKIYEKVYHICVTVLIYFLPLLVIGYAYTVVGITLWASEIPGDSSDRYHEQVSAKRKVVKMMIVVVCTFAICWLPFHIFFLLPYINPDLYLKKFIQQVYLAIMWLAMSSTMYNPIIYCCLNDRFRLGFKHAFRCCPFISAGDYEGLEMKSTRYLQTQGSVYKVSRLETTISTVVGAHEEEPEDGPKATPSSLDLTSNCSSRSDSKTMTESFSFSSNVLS

## COC(CN1CCC(O)(c2ccccc2)CC1)C(CNC(=O)OC(C)(C)C)c1ccc(Cl)c(Cl)c1 (stereo not shown) [Example 12]
[1]
  inhibition at 1 µM: 9%
[2]
  inhibition at 1 µM: 68%

## CN(CC(C(=O)CN1CCC(O)(c2ccccc2)CC1)c1ccc(Cl)c(Cl)c1)C(=O)c1ccccc1 (stereo not shown) [Example 16]
[1]
  inhibition at 1 µM: 23%
[2]
  inhibition at 1 µM: 96%

## CN(C[C@H](c1ccc(Cl)c(Cl)c1)[C@@H](CN1CCC(O)(c2ccccc2)CC1)OCc1cc(C(F)(F)F)cc(C(F)(F)F)c1)C(=O)c1ccccc1 (relative stereo) [Example 19]
[1]
  inhibition at 1 µM: 78%
[2]
  inhibition at 1 µM: 18%

## CN(C[C@H](c1ccc(Cl)c(Cl)c1)[C@@H](O)CN1CCC(O)(c2ccccc2)CC1)C(=O)c1ccccc1 (relative stereo) [Example 2]
[1]
  inhibition at 1 µM: 81%
[2]
  inhibition at 1 µM: 88%

## CON=C(CN1CCC(O)(c2ccccc2)CC1)C(CN(C)C(=O)c1ccccc1)c1ccc(Cl)c(Cl)c1 (stereo not shown) [Example 18]
[1]
  inhibition at 1 µM: 1%
[2]
  inhibition at 1 µM: 15%
